From patent US6552014B2, “Methods of inhibiting platelet activation with selective serotonin reuptake inhibitors” (HeartDrug Research, L.L.C., priority 1999, dated 2003)

Assays:
[1] = system: CD9; experiment: Flow cytometry of platelet antigen expression, platelet rich plasma; assay type: cell-based, human; details: for CD9 (mean) log fluorescence intensity / CD9 (peak) log fluorescence intensity: PRP
Text: (§1) For ex vivo assessment of the SSRIs effect on a PAM, a level of a PAM can be assessed by flow cytometry by first obtaining a sample that comprises platelets and then contacting the sample with a platelet activation agonist, such as phorbol myristate acetate (PMA), ADP (adenosine diphosphate), thrombin, collagen, and/or TRAP (thrombin receptor activating peptide), under conditions suitable for activation of platelets in the sample. The sample is in contact with the agonist preferably for a period of time effective to maximally activate the platelets. […] NDMS at 31.1, 64.1 or 143 ng./ml). Then one contacts or stains the samples with a composition that comprises an anti-PAM antibody e.g., having a fluorescent label, preferably in an amount in excess of that required to bind the PAM expressed on the platelets, under conditions suitable for the formation of labeled complexes between the anti-PAM antibody and activated platelets. Then the formation of the complex in the sample is determined (detected or measured). […] The blood-ACD mixture was centrifuged at 1000 r.p.m. for 10 minutes at room temperature. […] The PRP was then centrifuged at 3000 r.p.m. for 10 minutes. […] All cells were then divided into ten plastic capped tubes. Nine portions of washed platelets were incubated with 5 μfluorescein isothiocyanate (FITC)-conjugated antibodies in the dark at +4 °C for 30 minutes, and one part remained unstained and served as a negative control. Surface antigen expression was measured with monoclonal murine anti-human antibodies: CD9 (p24); CD41a (IIb/IIIa, aIIIbb3); CD42b (Ib); CD61(IIIa) (DAKO Corporation, Carpinteria Calif.); CD49b (VLA-2, or a2b1); CD62p (P-selectin); CD31 (PECAM-1); […] The instrument was calibrated daily with fluorescence beads (CaliBRITE; Becton Dickinson) and measured FITC-conjugated fluorescence intensity. All parameters were obtained using four decade logarithmic amplification. The data was collected and stored in list mode, and then analyzed using CELLQuest® (version 1.2.2) software. Procedures are described in detail in (Gurbel, P. […] Serebruany, V. […] Gurbel, P. A. et al., Coron Artery Dis 9: 451-456 (1998) and Serebruany, V. L. et al., Arterioscl Thromb Vasc Biol 19: 153-158 (1999)). The data in table 1 was obtained using the methods described herein, and in particular, in Examples 1 and 2. The levels of various PAMs were assess from samples of human volunteers.

[2] = system: CPIa-IIa; experiment: as above; assay type: cell-based, human; details: for CPIa-IIa (mean) log fluorescence intensity / CPIa-IIa (peak) log fluorescence intensity: PRP
Text: as §1

[3] = system: GP IIIa; experiment: as above; assay type: cell-based, human; details: PRP
Text: as §1

[4] = system: GP IIb/IIIa; experiment: as above; assay type: cell-based, human; details: for GP IIb/IIIa (mean) log fluorescence intensity / GP IIb/IIIa (peak) log fluorescence intensity: PRP
Text: as §1

[5] = system: GP IIb; experiment: as above; assay type: cell-based, human; details: PRP
Text: as §1

[6] = single doses in volunteers; cited from earlier work
[7] = system: P-selectin; experiment: Flow cytometry of platelet antigen expression, platelet rich plasma; assay type: cell-based, human; details: PRP
Text: For ex vivo assessment of the SSRIs effect on a PAM, a level of a PAM can be assessed by flow cytometry by first obtaining a sample that comprises platelets and then contacting the sample with a platelet activation agonist, such as phorbol myristate acetate (PMA), ADP (adenosine diphosphate), thrombin, collagen, and/or TRAP (thrombin receptor activating peptide), under conditions suitable for activation of platelets in the sample. The sample is in contact with the agonist preferably for a period of time effective to maximally activate the platelets. […] Then the formation of the complex in the sample is determined (detected or measured). […] The blood-ACD mixture was centrifuged at 1000 r.p.m. for 10 minutes at room temperature. […] The PRP was then centrifuged at 3000 r.p.m. for 10 minutes. […] All cells were then divided into ten plastic capped tubes. Nine portions of washed platelets were incubated with 5 μfluorescein isothiocyanate (FITC)-conjugated antibodies in the dark at +4 °C for 30 minutes, and one part remained unstained and served as a negative control. […] The instrument was calibrated daily with fluorescence beads (CaliBRITE; Becton Dickinson) and measured FITC-conjugated fluorescence intensity. All parameters were obtained using four decade logarithmic amplification. The data was collected and stored in list mode, and then analyzed using CELLQuest® (version 1.2.2) software. Procedures are described in detail in (Gurbel, P. […] Serebruany, V. […] The levels of various PAMs were assess from samples of human volunteers.

[8] = healthy volunteers, sertraline 18.1 ng/ml
[9] = healthy volunteers, sertraline 44.7 ng/ml
[10] = healthy volunteers, sertraline 85.3 ng/ml
[11] = post-angioplasty patient on aspirin, sertraline 18.1 ng/ml
[12] = post-angioplasty patient on aspirin, sertraline 44.7 ng/ml
[13] = post-angioplasty patient on aspirin, sertraline 85.3 ng/ml
[14] = plasma concentration 85.3 ng/ml, equivalent to 200 mg/daily
[15] = healthy volunteers, desmethylsertraline 31.1 ng/ml
[16] = healthy volunteers, desmethylsertraline 64.2 ng/ml
[17] = healthy volunteers, desmethylsertraline 143 ng/ml
[18] = post-angioplasty patient on aspirin, desmethylsertraline 31.1 ng/ml
[19] = post-angioplasty patient on aspirin, desmethylsertraline 64.2 ng/ml
[20] = post-angioplasty patient on aspirin, desmethylsertraline 143 ng/ml

CN[C@H]1CC[C@@H](c2ccc(Cl)c(Cl)c2)c2ccccc21 [sertraline]
CD9 (mean) log fluorescence intensity [1, 8]: 948 | CD9 (peak) log fluorescence intensity [1, 8]: 938 | CD9 (mean) log fluorescence intensity [1, 9]: 905 | CD9 (peak) log fluorescence intensity [1, 9]: 777 | CD9 (mean) log fluorescence intensity [1, 10]: 742 | CD9 (peak) log fluorescence intensity [1, 10]: 716 | CD9 (mean) log fluorescence intensity [1, 11]: 949 | CD9 (peak) log fluorescence intensity [1, 11]: 1027 | CD9 (mean) log fluorescence intensity [1, 12]: 1015 | CD9 (peak) log fluorescence intensity [1, 12]: 850 | CD9 (mean) log fluorescence intensity [1, 13]: 984 | CD9 (peak) log fluorescence intensity [1, 13]: 964 | surface expression of CD9 (p24), in words [1, 14]: diminished surface expression | CPIa-IIa (mean) log fluorescence intensity [2, 8]: 51 | CPIa-IIa (peak) log fluorescence intensity [2, 8]: 47 | CPIa-IIa (mean) log fluorescence intensity [2, 9]: 49 | CPIa-IIa (peak) log fluorescence intensity [2, 9]: 37 | CPIa-IIa (mean) log fluorescence intensity [2, 10]: 35 | CPIa-IIa (peak) log fluorescence intensity [2, 10]: 30 | CPIa-IIa (mean) log fluorescence intensity [2, 11]: 63 | CPIa-IIa (peak) log fluorescence intensity [2, 11]: 55 | CPIa-IIa (mean) log fluorescence intensity [2, 12]: 70 | CPIa-IIa (peak) log fluorescence intensity [2, 12]: 60 | CPIa-IIa (mean) log fluorescence intensity [2, 13]: 67 | CPIa-IIa (peak) log fluorescence intensity [2, 13]: 60 | surface expression of very late antigen-2 (VLA-2, or GPIb-IIa), in words [2, 14]: diminished surface expression | GP IIIa (mean) log fluorescence intensity [3, 8]: 1389 | GP IIIa (peak) log fluorescence intensity [3, 8]: 1197 | GP IIIa (mean) log fluorescence intensity [3, 9]: 1197 | GP IIIa (peak) log fluorescence intensity [3, 9]: 1084 | GP IIIa (mean) log fluorescence intensity [3, 10]: 816 | GP IIIa (peak) log fluorescence intensity [3, 10]: 704 | GP IIIa (mean) log fluorescence intensity [3, 11]: 1247 | GP IIIa (peak) log fluorescence intensity [3, 11]: 1114 | GP IIIa (mean) log fluorescence intensity [3, 12]: 1404 | GP IIIa (peak) log fluorescence intensity [3, 12]: 1370 | GP IIIa (mean) log fluorescence intensity [3, 13]: 1321 | GP IIIa (peak) log fluorescence intensity [3, 13]: 1310 | GP IIb/IIIa expression, flow cytometric graph (FIG. 9), in words ([4]; 44.7, 85.3 ng/mL of sertraline): dose dependent decrease in the expression | GP IIb/IIIa (mean) log fluorescence intensity [4, 8]: 1038 | GP IIb/IIIa (peak) log fluorescence intensity [4, 8]: 991 | GP IIb/IIIa (mean) log fluorescence intensity [4, 9]: 748 | GP IIb/IIIa (peak) log fluorescence intensity [4, 9]: 518 | GP IIb/IIIa (mean) log fluorescence intensity [4, 10]: 533 | GP IIb/IIIa (peak) log fluorescence intensity [4, 10]: 421 | GP IIb/IIIa (mean) log fluorescence intensity [4, 11]: 911 | GP IIb/IIIa (peak) log fluorescence intensity [4, 11]: 679 | GP IIb/IIIa (mean) log fluorescence intensity [4, 12]: 962 | GP IIb/IIIa (peak) log fluorescence intensity [4, 12]: 798 | GP IIb/IIIa (mean) log fluorescence intensity [4, 13]: 1035 | GP IIb/IIIa (peak) log fluorescence intensity [4, 13]: 922 | surface expression of glycoprotein IIb/IIIa complex (GP IIb/IIIa), in words [4, 14]: diminished surface expression | GP IIb (mean) log fluorescence intensity [5, 8]: 31 | GP IIb (peak) log fluorescence intensity [5, 8]: 26 | GP IIb (mean) log fluorescence intensity [5, 9]: 31 | GP IIb (peak) log fluorescence intensity [5, 9]: 35 | GP IIb (mean) log fluorescence intensity [5, 10]: 30 | GP IIb (peak) log fluorescence intensity [5, 10]: 22 | GP IIb (mean) log fluorescence intensity [5, 11]: 30 | GP IIb (peak) log fluorescence intensity [5, 11]: 29 | GP IIb (mean) log fluorescence intensity [5, 12]: 27 | GP IIb (peak) log fluorescence intensity [5, 12]: 31 | GP IIb (mean) log fluorescence intensity [5, 13]: 37 | GP IIb (peak) log fluorescence intensity [5, 13]: 34 | dose at which sedative potential is evident [6]: ≥ 200 mg/daily

N[C@H]1CC[C@@H](c2ccc(Cl)c(Cl)c2)c2ccccc21 [Desmethyl sertraline, N-desmethylsertraline]
CD9 (mean) log fluorescence intensity [1, 15]: 728 | CD9 (peak) log fluorescence intensity [1, 15]: 620 | CD9 (peak) log fluorescence intensity [1, 16]: 805 | CD9 (mean) log fluorescence intensity [1, 17]: 837 | CD9 (peak) log fluorescence intensity [1, 17]: 770 | CD9 (mean) log fluorescence intensity [1, 18]: 908 | CD9 (peak) log fluorescence intensity [1, 18]: 1046 | CD9 (mean) log fluorescence intensity [1, 19]: 927 | CD9 (peak) log fluorescence intensity [1, 19]: 930 | CD9 (mean) log fluorescence intensity [1, 20]: 853 | CD9 (peak) log fluorescence intensity [1, 20]: 850 | CPIa-IIa (mean) log fluorescence intensity [2, 15]: 41 | CPIa-IIa (peak) log fluorescence intensity [2, 15]: 42 | CPIa-IIa (mean) log fluorescence intensity [2, 17]: 43 | CPIa-IIa (peak) log fluorescence intensity [2, 17]: 40 | CPIa-IIa (mean) log fluorescence intensity [2, 18]: 62 | CPIa-IIa (peak) log fluorescence intensity [2, 18]: 59 | CPIa-IIa (mean) log fluorescence intensity [2, 19]: 62 | CPIa-IIa (peak) log fluorescence intensity [2, 19]: 53 | CPIa-IIa (mean) log fluorescence intensity [2, 20]: 40 | CPIa-IIa (peak) log fluorescence intensity [2, 20]: 48 | GP IIIa (mean) log fluorescence intensity [3, 15]: 981 | GP IIIa (peak) log fluorescence intensity [3, 15]: 913 | GP IIIa (mean) log fluorescence intensity [3, 16]: 1178 | GP IIIa (mean) log fluorescence intensity [3, 17]: 1182 | GP IIIa (peak) log fluorescence intensity [3, 17]: 1046 | GP IIIa (mean) log fluorescence intensity [3, 18]: 1235 | GP IIIa (peak) log fluorescence intensity [3, 18]: 1298 | GP IIIa (peak) log fluorescence intensity [3, 19]: 1144 | GP IIIa (mean) log fluorescence intensity [3, 20]: 1259 | GP IIIa (peak) log fluorescence intensity [3, 20]: 1219 | GP IIb/IIIa (mean) log fluorescence intensity [4, 15]: 580 | GP IIb/IIIa (peak) log fluorescence intensity [4, 15]: 457 | GP IIb/IIIa (mean) log fluorescence intensity [4, 16]: 743 | GP IIb/IIIa (peak) log fluorescence intensity [4, 16]: 649 | GP IIb/IIIa (mean) log fluorescence intensity [4, 17]: 708 | GP IIb/IIIa (peak) log fluorescence intensity [4, 17]: 509 | GP IIb/IIIa (mean) log fluorescence intensity [4, 18]: 948 | GP IIb/IIIa (peak) log fluorescence intensity [4, 18]: 791 | GP IIb/IIIa (mean) log fluorescence intensity [4, 19]: 918 | GP IIb/IIIa (peak) log fluorescence intensity [4, 19]: 777 | GP IIb/IIIa (mean) log fluorescence intensity [4, 20]: 836 | GP IIb/IIIa (peak) log fluorescence intensity [4, 20]: 716 | GP IIb (mean) log fluorescence intensity [5, 15]: 33 | GP IIb (peak) log fluorescence intensity [5, 15]: 31 | GP IIb (peak) log fluorescence intensity [5, 16]: 31 | GP IIb (mean) log fluorescence intensity [5, 17]: 30 | GP IIb (peak) log fluorescence intensity [5, 17]: 35 | GP IIb (mean) log fluorescence intensity [5, 18]: 24 | GP IIb (peak) log fluorescence intensity [5, 18]: 21 | GP IIb (mean) log fluorescence intensity [5, 19]: 22 | GP IIb (mean) log fluorescence intensity [5, 20]: 29 | GP IIb (peak) log fluorescence intensity [5, 20]: 25 | P-selectin (mean) log fluorescence intensity [7, 15]: 11.8 | P-selectin (peak) log fluorescence intensity [7, 15]: 459 | P-selectin (mean) log fluorescence intensity [7, 16]: 10.5 | P-selectin (peak) log fluorescence intensity [7, 16]: 494 | P-selectin (mean) log fluorescence intensity [7, 17]: 13.5 | P-selectin (peak) log fluorescence intensity [7, 17]: 398 | P-selectin (mean) log fluorescence intensity [7, 18]: 15 | P-selectin (peak) log fluorescence intensity [7, 18]: 322 | P-selectin (mean) log fluorescence intensity [7, 19]: 11 | P-selectin (peak) log fluorescence intensity [7, 19]: 537 | P-selectin (mean) log fluorescence intensity [7, 20]: 13.4 | P-selectin (peak) log fluorescence intensity [7, 20]: 378
